Source: patent US9314472B2, “Treatment and prevention of mastitis” (BRIGHAM YOUNG UNIVERSITY, priority 2012, dated 2016)
Counter-ions that a name gives are not always drawn.

Tests used:
[1] = system: Escherichia coli; experiment: Dose characterization study, CSA-44/propylene glycol formulation, intramammary treatment of clinical mastitis; format: in vivo, lactating dairy cows; settings: 60 mg CSA-44 per quarter, infused eight to ten times at 12-hour interval; cured = no clinical signs 10 days post-treatment, milk visibly normal, SCC < 350,000 cells
Method: (§1) A first dose characterization study was conducted using CSA-44 hydrochloride with and without propylene glycol based in the formulation. This study enabled the selection of a dose to be used in a dose confirmation (field) study, which was conducted using two propylene glycol formulations and 60 mg of CSA-44 hydrochloride per 10 ml syringe.
(§2) The objective of this study was to evaluate the effectiveness of intramammary administered CSA-44, with and without propylene glycol as part of the formulation, for the treatment of clinical mastitis in lactating dairy cows.
(§3) A total of 42 cow quarters from Blue Star Dairy (BSD) were enrolled. Cows in their second or greater lactation, with an elevated somatic cell count (SCC) and either a positive milk culture for a mastitis pathogen or signs of clinical mastitis were assigned to one of two treatment groups: 1) ceftiofur hydrochloride administered 2-7 times, per label directions; and 2) 60 mg of CSA-44 per quarter, cows were infused eight to ten times at a 12-hour interval. A quarter was considered cured if there were no clinical signs of mastitis 10 days post-treatment, milk was visibly normal, and somatic cell count (SCC) was less than 350,000 cells. Using these criteria, cure rates for Group CSA treated cows were 87% for Staph. spp. (CNS and Staph. aureus), 90% for Escherichia coli, and 78% for Strep spp. (Streptococcus dysgalactiae, Strep. uberis, and Streptococcus sp).

[2] = system: Staph. spp. (CNS and Staph. aureus); experiment: as above; format: in vivo, lactating dairy cows; settings: 60 mg CSA-44 per quarter, infused eight to ten times at 12-hour interval; cured = no clinical signs 10 days post-treatment, milk visibly normal, SCC < 350,000 cells
Method: as §1, §2, §3

[3] = system: Strep spp. (Streptococcus dysgalactiae, Strep. uberis, and Streptococcus sp); experiment: as above; format: in vivo, lactating dairy cows; settings: 60 mg CSA-44 per quarter, infused eight to ten times at 12-hour interval; cured = no clinical signs 10 days post-treatment, milk visibly normal, SCC < 350,000 cells
Method: as §1, §2, §3

[4] = system: combined gram positive and gram negative bacteria; experiment: CSA-44/saline formulation study, intramammary treatment of clinical mastitis, all cases; format: in vivo, lactating dairy cattle; settings: for cure rate for all mastitis cases: CSA-44 120 mg three times or cephapirin sodium 200 mg two times, intramammary, 24-hour interval, cured = no clinical signs, visibly normal milk, negative milk culture 11 days post-treatment; for % Cure / Cure (number) / Not Cure (number): combined gram positive and gram negative, CSA-44 120 mg x3 or cephapirin sodium 200 mg x2 intramammary, 11 days post-treatment
Method: (§4) A second dose characterization study was conducted using a non-final (saline) formulation of CSA-44 hydrochloride. The study enabled the selection of a dose to be used in the dose confirmation (field) study, which was conducted using the saline formulation of CSA-44 hydrochloride.
(§5) The objective of this study was to evaluate the effectiveness of intramammary administered CSA-44, as a saline based formulation, for the treatment of clinical mastitis in lactating dairy cows.
(§6) The objective was to evaluate the effectiveness of intramammary infusion of CSA-44 hydrochloride sterile suspension three times at a 24-hour interval at 120.0 mg dosage in the affected quarter in comparison to a negative control or 200 mg of cephapirin sodium activity in a stable peanut oil gel for the treatment of clinical mastitis in lactating dairy cattle.
(§7) A total of 151 cows from 2 herds were enrolled. Cows were enrolled in the study when they had visually abnormal milk (clots, flakes, or watery secretion) or if udder swelling, heat, pain or redness were present and milk was not yet visually abnormal, but the California Mastitis Test (CMT) gave results of 2 or greater. A pre-treatment milk sample was obtained from each affected quarter(s) and cultured for the presence of organisms associated with mastitis; the culture data were not available prior to treatment assignments.
(§8) Cows were assigned in blocks of three to receive either 120 mg CSA-44 HCl, 200 mg cephapirin sodium, or no treatment. Enrollment was restricted to cows with one quarter affected with clinical mastitis.
(§9) CSA-44 (120 mg) or cephapirin sodium (200 mg) was administered as an intramammary infusion three times or two times, respectively, at a 24-hour interval beginning on the day of enrollment (Day 0). Cows assigned to the control group were left untreated. […]. Cows in their second or greater lactation, with an elevated somatic cell count (SCC) and either a positive milk culture for a mastitis pathogen or signs of clinical mastitis were assigned to one of three treatment groups. A quarter was considered cured if there were no clinical signs of mastitis, visibly normal milk, and a negative milk culture 11 days post-treatment. Using these criteria, cure rates for all mastitis cases were 28.0% (Control-0 mg), 63.0% (cephapirin sodium, 200 mg), and 75.0% (CSA-44, 120 mg).
Test data for combined gram positive and gram negative bacteria are set forth in Table 3 below and graphically illustrated in FIG. 2C.

[5] = system: gram positive bacteria; experiment: CSA-44/saline formulation study, intramammary treatment of clinical mastitis, gram positive; format: in vivo, lactating dairy cattle; settings: CSA-44 120 mg x3 or cephapirin sodium 200 mg x2 intramammary, 11 days post-treatment
Method: as §4, §5, §6, §7, §8, §9
Test data for gram positive bacteria are set forth in Table 1 below and graphically illustrated in FIG. 2A.

[6] = system: gram negative bacteria; experiment: CSA-44/saline formulation study, intramammary treatment of clinical mastitis, gram negative; format: in vivo, lactating dairy cattle; settings: CSA-44 120 mg x3 or cephapirin sodium 200 mg x2 intramammary, 11 days post-treatment
Method: as §4, §5, §6, §7, §8, §9
Test data for gram negative bacteria are set forth in Table 2 below and graphically illustrated in FIG. 2B.

[7] = Animal safety: udder irritation after intramammary infusion of CSA-44 sterile saline suspension; format: in vivo, lactating female Holstein dairy cattle; settings: 120 mg
Method: The purpose of this example was to study the effects on dairy cows relative to udder irritation of intramammary infusion of a sterile formulation of CSA-44 containing either […] of CSA-44 per 10 mL plastet into both front quarters. More particularly, the study evaluated the safety of intramammary infusion of 120 mg, 150 mg and 200 mg CSA-44 hydrochloride sterile saline (0.9% NaCl) suspension, respectively, in each of two front quarters daily for three consecutive days with an approximate 24-hour interval between infusions.
Three lactating female Holstein dairy cattle ranging from 2 to 5 years of age and representing low milk producers (13.2 kg to 24.0 kg/day) and high milk producers (25.0 kg to 31.9 kg/day) were used in the study. Cows were enrolled based on the absence of mastitis pathogens, absence of clinical mastitis (normal strip cup and udder palpation), a somatic cell count (SCC) less than or equal to 200,000 per mL, and no edema or teat lesions.
Within each of the lactation/production subgroups (1st lactation high producers, 1st lactation low producers, ≧2nd lactation high producers, or ≧2nd lactation low producers), cows were assigned to receive either three doses of CSA-44 by intramammary infusion. There were no non-treated controls.
Following a 3-day pre-treatment clinical observation and milk sample collection period, animals received their assigned treatment. Measurements and observations continued during the treatment period and through Day 3 (60 hours) post treatment.
A CSA-44 sterile saline suspension (120 mg, 150 mg, or 200 mg) was administered as an intramammary infusion into both front quarters once at a 24-hour interval for three consecutive days. The following clinical and production measures were evaluated for a total of either 14 milkings: appearance of foremilk (strip cup evaluation), physical condition of udder, milk production, and general health.

[8] = Human food safety: total residue study of CSA-44 in bovine milk by HPLC with MS detection; format: in vivo, lactating Holstein cows; settings: predicted; intramammary 120, 150 or 200 mg daily for three days
Description: The objective of this study was to validate a method for the determination of CSA-44 in bovine milk by HPLC with MS detection. The protocol has been designed to fulfill the requirements outlined in the FDA/CVM Guidance for Industry #208^1. ^1Guidance for Industry #208: Studies to Evaluate the Metabolism and Residue Kinetics of Veterinary Drugs in Food-Producing Animals: Validation of Analytical Methods used in Residue Depletion Studies. VICH GL49. U.S. Department of Health and Human Services, Food and Drug Administration, Center for Veterinary Medicine. Sep. 15, 2011
A GLP-compliant total residue study was conducted in 3 healthy, lactating Holstein cows. Cows tested were in the middle of their 2nd or 3rd lactation. The more specific objective was to evaluate the safety of intramammary infusion of 120, 150 and 200 mg dosages of CSA-44 hydrochloride sterile saline (0.9% NaCl) suspension, respectively, in each of two front quarters daily for three consecutive days with an approximate 24-hour interval between infusions.
Three lactating female Holstein dairy cattle ranging from 2 to 5 years of age and representing low milk producers (13.2 kg to 24.0 kg/day) and high milk producers (25.0 kg to 31.9 kg/day) were used in the study. […]

[9] = system: coagulase-negative staphylococci, Streptococcus dysgalactae, and Eshcherica coli; settings: from Freedom Of Information Summary NADA 141-238, sterile suspension of ceftiofur hydrochloride; cited from earlier work
[10] = 150 mg or 200 mg in sterile saline, intramammary into both front quarters, once daily for three consecutive days

Structure (SMILES)	cure rate for all mastitis cases [4] [%]	% Cure [4] [%]	Cure (number) [4]	Not Cure (number) [4]	% Cure [5] [%]	Cure (number) [5]	Not Cure (number) [5]	% Cure [6] [%]	Cure (number) [6]	Not Cure (number) [6]	further results
CCCCCCCCOC(=O)CC[C@@H](C)[C@H]1CC[C@H]2[C@@H]3[C@H](OC(=O)CCN)C[C@@H]4C[C@H](OC(=O)CCN)CC[C@]4(C)[C@H]3C[C@H](OC(=O)CCN)[C@]12C [CSA-44]	75.0	75	45	15	70	29	12	84	16	3	cure rate [1]: 90%; cure rate [2]: 87%; cure rate [3]: 78%; milk quality appearance and strip cup response during treatment [7, 10]: no change in milk quality; udder physical condition scores, strip cup analyses, milk production (milk weight and percent milk fat) in response to treatment [7, 10]: no overall differences; clinical safety and irritation of mammary tissue ([7]; sterile saline formulation, 150 mg or 200 mg per 10 mL dose, infused once daily for up to three consecutive days): clinically safe and not irritating to the mammary tissue; time until CSA-44 is undetectable in milk [8]: 60 to 72 h; time until residues in the milk are substantially depleted [8]: 24 to 48 h
CO/N=C(\C(=O)N[C@@H]1C(=O)N2C(C(=O)O)=C(CSC(=O)c3ccco3)CS[C@H]12)c1csc(N)n1 [Ceftiofur HCl, ceftiofur hydrochloride]											% Cure [9]: 70%; Cure (number) [9]: 38; Not Cure (number) [9]: 16
CC(=O)OCC1=C(C(=O)O)N2C(=O)[C@@H](NC(=O)CSc3ccncc3)[C@H]2SC1 [Cephapirin Sodium, cephapirin sodium, reference compound]	63.0	62	32	20	62	21	13	61	11	7	
